Measurements: patent US11214803B2, “Modulators of YAP1 expression” (Ionis Pharmaceuticals, Inc., priority 2019, dated 2022)
Strand notation (5' to 3'): a small letter for the sugar, then the base; units joined by * are phosphorothioate-linked, units joined directly phosphodiester-linked; [ ] holds rarer units or linkages, { } end groups; capitals alone tell only the bases. k = constrained ethyl (cEt); [5mC] = 5-methylcytosine; d = 2'-deoxy (DNA)

Tested on: Yap1 mRNA
Assay: Dose-dependent inhibition of human Yap1 in A-431 cells (Example 8, 10,000 cells per well, RTS4814)
Assay type: cell-based
Conditions: free uptake, approximately 48 hours, RTS4814; for Yap1 mRNA, % UTC: A-431 cells, 10,000 cells per well; for IC50: A-431 cells, linear regression on log/linear plot
Protocol: Modified oligonucleotides described in the studies above were tested at various doses in A-431 cells. Cultured A-431 cells at a density of 10,000 cells per well were treated using free uptake with modified oligonucleotides diluted to concentrations described in the tables below. After approximately 48 hours, Yap1 mRNA levels were measured as previously described using the Human Yap1 primer-probe set RTS4814. Yap1 mRNA levels were normalized to total RNA content, as measured by RIBOGREEN®. Results are presented in the tables below as percent control of the amount of Yap1 mRNA relative to untreated control cells (% UTC). IC50s were calculated using a linear regression on a log/linear plot of the data in excel.

Substance: 1074817 (k[5mC]*kT*kG*dA*dA*dT*dA*dT*dT*dG*d[5mC]*d[5mC]*dA*k[5mC]*k[5mC]*k[5mC]; antisense) [compound 1074817]
- Yap1 mRNA, % UTC (31.3 nM): 50 % UTC
- Yap1 mRNA, % UTC (125.0 nM): 22 % UTC
- Yap1 mRNA, % UTC (500.0 nM): 13 % UTC
- Yap1 mRNA, % UTC (2000.00 nM): 11 % UTC
- IC50: < 20 nM

Substance: 1076549 (kG*kT*kG*d[5mC]*dA*dA*dA*dA*dT*dA*d[5mC]*d[5mC]*dT*kT*kT*kG; antisense) [compound 1076549]
- Yap1 mRNA, % UTC (31.3 nM): 53 % UTC
- Yap1 mRNA, % UTC (125.0 nM): 24 % UTC
- Yap1 mRNA, % UTC (500.0 nM): 10 % UTC
- Yap1 mRNA, % UTC (2000.00 nM): 6 % UTC
- IC50: < 20 nM

Substance: 1076523 (kA*kT*kT*dT*dA*dT*dA*dT*d[5mC]*dA*dG*dG*dT*k[5mC]*kA*kA; antisense) [compound 1076523]
- Yap1 mRNA, % UTC (31.3 nM): 67 % UTC
- Yap1 mRNA, % UTC (125.0 nM): 38 % UTC
- Yap1 mRNA, % UTC (500.0 nM): 18 % UTC
- Yap1 mRNA, % UTC (2000.00 nM): 7 % UTC
- IC50: 100 nM

Substance: 1075808 (kG*k[5mC]*kA*dA*dT*dA*dG*dA*dG*dT*dA*dA*d[5mC]*k[5mC]*kA*kG; antisense) [compound 1075808]
- Yap1 mRNA, % UTC (31.3 nM): 38 % UTC
- Yap1 mRNA, % UTC (125.0 nM): 9 % UTC
- Yap1 mRNA, % UTC (500.0 nM): 4 % UTC
- Yap1 mRNA, % UTC (2000.00 nM): 4 % UTC
- IC50: < 20 nM

Substance: 1075465 (antisense kG*kA*kT*dT*dT*dA*dT*dT*dG*dA*dA*d[5mC]*dT*kG*kA*kG) [compound 1075465]
- Yap1 mRNA, % UTC (31.3 nM): 75 % UTC
- Yap1 mRNA, % UTC (125.0 nM): 35 % UTC
- Yap1 mRNA, % UTC (500.0 nM): 14 % UTC
- Yap1 mRNA, % UTC (2000.00 nM): 9 % UTC
- IC50: 100 nM

Substance: 1076458 (k[5mC]*kT*kT*dA*dA*dT*dT*dA*dG*d[5mC]*d[5mC]*dT*d[5mC]*kA*kG*kT; antisense) [compound 1076458]
- Yap1 mRNA, % UTC (31.3 nM): 88 % UTC
- Yap1 mRNA, % UTC (125.0 nM): 52 % UTC
- Yap1 mRNA, % UTC (500.0 nM): 23 % UTC
- Yap1 mRNA, % UTC (2000.00 nM): 10 % UTC
- IC50: 200 nM

Substance: 1075111 (kT*kA*kG*dG*dA*dA*dT*dA*dT*dG*dG*dG*dT*kA*kG*kT; antisense) [compound 1075111]
- Yap1 mRNA, % UTC (31.3 nM): 42 % UTC
- Yap1 mRNA, % UTC (125.0 nM): 11 % UTC
- Yap1 mRNA, % UTC (500.0 nM): 6 % UTC
- Yap1 mRNA, % UTC (2000.00 nM): 5 % UTC
- IC50: < 20 nM

Substance: 1076291 (kG*kA*kT*dT*dA*dA*dT*dG*dG*dT*dG*dG*d[5mC]*kA*kT*kT; antisense) [compound 1076291]
- Yap1 mRNA, % UTC (31.3 nM): 75 % UTC
- Yap1 mRNA, % UTC (125.0 nM): 26 % UTC
- Yap1 mRNA, % UTC (500.0 nM): 8 % UTC
- Yap1 mRNA, % UTC (2000.00 nM): 5 % UTC
- IC50: 100 nM

Substance: 1074630 (antisense kA*kG*kA*dG*dA*dT*dT*dT*dT*dA*dT*dG*d[5mC]*k[5mC]*kT*kG) [compound 1074630]
- Yap1 mRNA, % UTC (31.3 nM): 57 % UTC
- Yap1 mRNA, % UTC (125.0 nM): 23 % UTC
- Yap1 mRNA, % UTC (500.0 nM): 10 % UTC
- Yap1 mRNA, % UTC (2000.00 nM): 6 % UTC
- IC50: < 20 nM

Substance: 1076326 (kG*k[5mC]*kT*dA*dA*dT*dA*dA*dT*dG*dG*dA*dA*kG*kA*kG; antisense) [compound 1076326]
- Yap1 mRNA, % UTC (31.3 nM): 53 % UTC
- Yap1 mRNA, % UTC (125.0 nM): 20 % UTC
- Yap1 mRNA, % UTC (500.0 nM): 6 % UTC
- Yap1 mRNA, % UTC (2000.00 nM): 3 % UTC
- IC50: < 20 nM

Substance: 1074795 (k[5mC]*k[5mC]*kA*dA*dA*dT*d[5mC]*dA*dA*dT*dG*dT*dG*k[5mC]*kT*k[5mC]; antisense) [compound 1074795]
- Yap1 mRNA, % UTC (31.3 nM): 38 % UTC
- Yap1 mRNA, % UTC (125.0 nM): 14 % UTC
- Yap1 mRNA, % UTC (500.0 nM): 7 % UTC
- Yap1 mRNA, % UTC (2000.00 nM): 5 % UTC
- IC50: < 20 nM

Substance: 1074560 (DNA k[5mC]*k[5mC]*kA*dA*dT*d[5mC]*dG*dA*dG*dA*d[5mC]*dT*dT*kA*kA*kA) [compound 1074560]
- Yap1 mRNA, % UTC (31.3 nM): 50 % UTC
- Yap1 mRNA, % UTC (125.0 nM): 16 % UTC
- Yap1 mRNA, % UTC (500.0 nM): 6 % UTC
- Yap1 mRNA, % UTC (2000.00 nM): 4 % UTC
- IC50: < 20 nM

Substance: 1076552 (kA*kT*kG*dT*dA*dT*dA*dA*dA*dT*dA*d[5mC]*d[5mC]*kA*kG*kG; antisense) [compound 1076552]
- Yap1 mRNA, % UTC (31.3 nM): 73 % UTC
- Yap1 mRNA, % UTC (125.0 nM): 40 % UTC
- Yap1 mRNA, % UTC (500.0 nM): 17 % UTC
- Yap1 mRNA, % UTC (2000.00 nM): 12 % UTC
- IC50: 100 nM

Substance: 1075968 (kT*kA*kT*dT*dT*dA*dA*dG*d[5mC]*d[5mC]*dA*dA*dA*k[5mC]*k[5mC]*kG; antisense) [compound 1075968]
- Yap1 mRNA, % UTC (31.3 nM): 74 % UTC
- Yap1 mRNA, % UTC (125.0 nM): 37 % UTC
- Yap1 mRNA, % UTC (500.0 nM): 11 % UTC
- Yap1 mRNA, % UTC (2000.00 nM): 5 % UTC
- IC50: 100 nM

Substance: 1075207 (k[5mC]*kT*kA*dT*dT*dA*dA*dA*dT*dG*dA*dG*d[5mC]*kA*k[5mC]*k[5mC]; antisense) [compound 1075207]
- Yap1 mRNA, % UTC (31.3 nM): 82 % UTC
- Yap1 mRNA, % UTC (125.0 nM): 51 % UTC
- Yap1 mRNA, % UTC (500.0 nM): 17 % UTC
- Yap1 mRNA, % UTC (2000.00 nM): 7 % UTC
- IC50: 100 nM

Substance: 1074629 (DNA kG*kA*kG*dA*dT*dT*dT*dT*dA*dT*dG*d[5mC]*d[5mC]*kT*kG*kT; antisense) [compound 1074629]
- Yap1 mRNA, % UTC (31.3 nM): 21 % UTC
- Yap1 mRNA, % UTC (125.0 nM): 5 % UTC
- Yap1 mRNA, % UTC (500.0 nM): 3 % UTC
- Yap1 mRNA, % UTC (2000.00 nM): 3 % UTC
- IC50: < 20 nM

Substance: 1075047 (antisense kT*kA*kA*dA*dA*dT*dT*dA*dG*dA*d[5mC]*dT*d[5mC]*k[5mC]*k[5mC]*k[5mC]) [compound 1075047]
- Yap1 mRNA, % UTC (31.3 nM): 80 % UTC
- Yap1 mRNA, % UTC (125.0 nM): 63 % UTC
- Yap1 mRNA, % UTC (500.0 nM): 27 % UTC
- Yap1 mRNA, % UTC (2000.00 nM): 10 % UTC
- IC50: 200 nM

Substance: 1075242 (k[5mC]*kA*kG*dG*dG*dA*dT*dA*dA*dT*dT*dA*d[5mC]*kT*kA*kA; antisense) [compound 1075242]
- Yap1 mRNA, % UTC (31.3 nM): 71 % UTC
- Yap1 mRNA, % UTC (125.0 nM): 39 % UTC
- Yap1 mRNA, % UTC (500.0 nM): 18 % UTC
- Yap1 mRNA, % UTC (2000.00 nM): 12 % UTC
- IC50: 100 nM

Substance: 1074536 (kA*kG*kT*dA*dA*dT*dA*dG*d[5mC]*dT*d[5mC]*dT*dT*kT*k[5mC]*kT; antisense) [compound 1074536]
- Yap1 mRNA, % UTC (31.3 nM): 64 % UTC
- Yap1 mRNA, % UTC (125.0 nM): 24 % UTC
- Yap1 mRNA, % UTC (500.0 nM): 9 % UTC
- Yap1 mRNA, % UTC (2000.00 nM): 6 % UTC
- IC50: 40 nM

Substance: 1074594 (DNA kT*kA*kG*dG*dA*dG*d[5mC]*dA*dA*dG*dT*d[5mC]*dT*kT*kG*kT) [compound 1074594]
- Yap1 mRNA, % UTC (31.3 nM): 53 % UTC
- Yap1 mRNA, % UTC (125.0 nM): 23 % UTC
- Yap1 mRNA, % UTC (500.0 nM): 10 % UTC
- Yap1 mRNA, % UTC (2000.00 nM): 5 % UTC
- IC50: < 20 nM

Substance: 1075712 (kG*kA*k[5mC]*dG*d[5mC]*dG*dA*dA*dA*dT*dA*d[5mC]*dT*kT*kA*k[5mC]; antisense) [compound 1075712]
- Yap1 mRNA, % UTC (31.3 nM): 69 % UTC
- Yap1 mRNA, % UTC (125.0 nM): 38 % UTC
- Yap1 mRNA, % UTC (500.0 nM): 13 % UTC
- Yap1 mRNA, % UTC (2000.00 nM): 7 % UTC
- IC50: 100 nM

Substance: 1075744 (kT*kT*k[5mC]*dG*dG*dG*dT*dT*dA*dG*d[5mC]*dA*dG*kA*k[5mC]*kT; antisense) [compound 1075744]
- Yap1 mRNA, % UTC (31.3 nM): 55 % UTC
- Yap1 mRNA, % UTC (125.0 nM): 22 % UTC
- Yap1 mRNA, % UTC (500.0 nM): 9 % UTC
- Yap1 mRNA, % UTC (2000.00 nM): 7 % UTC
- IC50: < 20 nM

Substance: 1075810 (kG*kT*kA*dG*d[5mC]*dA*dA*dT*dA*dG*dA*dG*dT*kA*kA*k[5mC]; antisense) [compound 1075810]
- Yap1 mRNA, % UTC (31.3 nM): 67 % UTC
- Yap1 mRNA, % UTC (125.0 nM): 28 % UTC
- Yap1 mRNA, % UTC (500.0 nM): 12 % UTC
- Yap1 mRNA, % UTC (2000.00 nM): 7 % UTC
- IC50: 100 nM

Substance: 1075748 (kG*kT*kA*dA*dA*dT*d[5mC]*dA*dA*dG*dT*dT*dG*k[5mC]*kA*kT; antisense) [compound 1075748]
- Yap1 mRNA, % UTC (31.3 nM): 81 % UTC
- Yap1 mRNA, % UTC (125.0 nM): 36 % UTC
- Yap1 mRNA, % UTC (500.0 nM): 12 % UTC
- Yap1 mRNA, % UTC (2000.00 nM): 7 % UTC
- IC50: 100 nM
